Common to all, as to assay type: biochemical
Assay [1] addresses T1, HRP (Armoracia rusticana, UniProt P00433).
T1 construct: purchased Sigma
T1 sequence (P00433 31-338 limits assumed): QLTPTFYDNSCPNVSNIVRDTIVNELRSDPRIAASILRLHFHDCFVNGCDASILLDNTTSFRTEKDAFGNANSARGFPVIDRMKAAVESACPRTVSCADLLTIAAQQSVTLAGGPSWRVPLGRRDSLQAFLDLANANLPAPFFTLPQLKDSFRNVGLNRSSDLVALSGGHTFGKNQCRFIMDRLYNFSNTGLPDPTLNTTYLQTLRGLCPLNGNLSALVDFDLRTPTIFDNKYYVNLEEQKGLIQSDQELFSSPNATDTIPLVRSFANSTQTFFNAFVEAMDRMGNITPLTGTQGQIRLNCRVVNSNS
The experiment in a line: Enzyme assay with OD4MI CL detection to quantify HRP in the presence of surfactant. As to conditions: for dynamic range of enzyme assay for quantifying HRP compared with absence of surfactant: surfactant at critical micelle concentration. The procedure:
Various concentrations (0.5, 1.0, and 1.5%) of Triton® X surfactant derivatives (Triton® X-100, Triton® X-114, Triton® X-405, and Triton® X-705) were prepared in Tris-HCl buffer solution (pH 8.5).
Various surfactants (e.g., (2-Hydroxypropyl)-β-cyclodetrin, β-cyclodextrin, Carboxymethyl-β-cyclodextrin, Carbomethyl-β-cyclodextrin sodium salt, γ-cyclodextrin, Sodium dodecyl sulfate, Hexadecyltrimethylammonium bromide, Hexadecyltrimethylammonium chloride) of critical micelle concentration (CMC) were prepared in Tris-HCl buffer solution (pH 8.5).
As a substrate for ODI derivative CL detection, 2.0 μM Amplex® Red reagent in deionized water was prepared.
Various concentrations (0˜0.1 U/ml) of HRP containing 2.0 mM H2O2 was prepared in Tris-HCl buffer solution (pH 8.5).
1,1′-Oxalyldi-4-methyl-imidazole (OD4MI), one of ODI derivatives was formed from the reaction between 5.0 μM TCPO, and 10.0 μM 4-Methylimidazole (4MImH) in Ethyl acetate. 100 mM H2O2 was prepared in Isopropyl alcohol.
• 5. Mix and incubate 0.8 ml of Amplex® Red reagent (or deionized water), 0.1 ml of surfactant, one of various surfactants used in this research, and 0.1 ml of HRP containing H2O2 for 10 minutes in a 1.5 ml-centrifuge tube at room temperature. • 6. Pipette 10 μl of working solution into the assigned test tube (12×75 mm) or strip well. • 7. Insert the test tube into a luminometer or the strip well into a microplate luminometer. • 8. Read CL emitted when OD4MI and H2O2 are added into the test tube or strip well through two dispensers.

The target of assay [2] is T2, AFP detection antibody-HRP conjugate (Armoracia rusticana, UniProt P00433).
T2 construct: AFP detection antibody (conjugated)
T2 sequence (P00433 31-338 limits assumed): T1 sequence (P00433 31-338 limits assumed)
The experiment in a line: Quantification of AFP using AFP detection antibody-HRP conjugate and OD4MI CL detection in the presence of Triton X-100. As to conditions: 0.1% Triton X-100, OD4MI CL detection, FIG. 6. The procedure: AccuLite® CLIA kit capable of quantifying AFP with luminol CL detection was used to develop new CLEIA method using OD4MI CL detection in the presence of 0.1% Triton® X-100 surfactant. The kit is composed of 96 strip wells coated with monoclonal AFP primary antibody, AFP detection antibody-HRP conjugate, luminol as a substrate, reaction buffer, and washing buffer.
2.0 μM Amplex® Red reagent and 0.2 mM H2O2 in deionized water were prepared in water containing 0.1% Triton® X-100 surfactant.
(§1) OD4MI was formed from the reaction between 5.0 μM TCPO and 10.0 μM 4-Methylimidazole (4MImH) in Ethyl acetate. 100 mM H2O2 was prepared in Isopropyl alcohol.
• 12. Pipette 25 μl of AFP standard or test sample into a strip well. • 13. Add 100 μl of AFP detection antibody-HRP conjugate to the strip well • 14. Swirl the strip wells for 20 seconds. • 15. Incubate for 30 minutes at 37° C. • 16. Discard the contents of each strip wells. • 17. Wash each plate with 300 μl washing buffer. Repeat four additional times. • 18. Add 100 μl working solution containing 2.0 μM Amplex® Red reagent, 0.2 mM H2O2 and 0.1% Triton® X-100 surfactant in the strip well. • 19. […] Read (integration time: 0.5 seconds) emitted CL for 0.5 seconds when OD4MI and H2O2 are added into the test tube or strip well through two dispensers.

The target of assay [3] is T3, PSA detection antibody-HRP conjugate (Armoracia rusticana, UniProt P00433).
T3 construct: PSA detection antibody (conjugated)
T3 sequence (P00433 31-338 limits assumed): T1 sequence (P00433 31-338 limits assumed)
Briefly: Quantification of PSA using PSA detection antibody-HRP conjugate and OD4MI CL detection (CLEIA) in the presence of catalyst. On the procedure:
AccuLite® CLIA kit capable of quantifying PSA with luminol CL detection was used to develop new CLEIA method using ODI derivative CL detection. The kit is composed of 96 strip wells coated with monoclonal PSA primary antibody, PSA detection antibody-HRP conjugate, luminol as a substrate, reaction buffer, and washing buffer.
8 different PSA serum samples (0, 0.5, 1, 2, 5, 10, 25, 50 ng/ml), components of AccuLite® CLIA kit, were used as standard samples.
2.0 μM Amplex® Red reagent and 0.2 mM H2O2 in deionized water were prepared as described in Example 1 (A).
0.5 mM 4-Iodophenol was prepared in Tris-HCl buffer solution (pH 8.5).
2.0 mM 4-(1,2,4-triazol-1-yl) phenol was prepared in Tris-HCl buffer solution (pH 8.5).
0.8 ml of aqueous solution containing Amplex® Red reagent (2.0 μM) and H2O2 (0.2 mM) was mixed with 0.2 ml of 4-Iodophenol (or 2.0 mM 4-(1,2,4-triazol-1-yl) phenol).
as §1
• 12. Pipette 25 μl of PSA standard or test sample into a strip well. • 13. Add 100 μl of PSA detection antibody-HRP conjugate to the strip well • 14. Swirl the strip wells for 20 seconds. • 15. Incubate for 20 minutes at 37° C. • 16. Discard the contents of each strip wells. • 17. Wash each plate with 300 μl washing buffer. Repeat four additional times. • 18. Add 100 μl working solution containing 2.0 μM Amplex® Red reagent and 0.2 mM H2O2 to each strip well. • 19. Incubate the strip-well containing Amplex® Red reagent, H2O2, and 4-Iodophenol (or 2.0 mM 4-(1,2,4-triazol-1-yl) phenol) for 5.0 minutes at room temperature (21˜23° C.) in the dark. • 20. Pipette 10 μl of working solution into the assigned test tube (12×75 mm). • 21. Insert the test tube into a luminometer or the strip well into a microplate luminometer. • 22. Read (integration time: 0.5 seconds) emitted CL for 0.5 seconds when OD4MI and H2O2 are added into the test tube or strip well through two dispensers.

For the compound `CCCCCCCCCCCCCCCC[N+](C)(C)C.[Cl-]` [Hexadecyltrimethylammonium chloride], in assay [1] (OD4MI CL detection), the “dynamic range of enzyme assay for quantifying HRP compared with absence of surfactant” value is recorded as “wider than that in the absence of surfactant”.

Turning to Triton® X-100, in assay [2], the “linear dynamic range for quantification of AFP” value is listed as 0˜1250 ng/ml. For the same compound, the “dynamic range to quantify HRP compared with other Triton X derivatives” value in assay [1] (1.0% surfactant, FIG. 5) was “wider than those in other Triton® X surfactant derivatives”. In addition, the “effect on the reaction between Amplex Red reagent and H2O2 in the presence of HRP” value in assay [1] (OD4MI CL detection, FIG. 3 to 5) is “acting to interfere”. Moreover, the “dynamic range of enzyme assay to quantify HRP, upper end” value in assay [1] (higher Triton X-100 concentration, OD4MI CL detection, room temperature, FIG. 3) is “up to 0.1 U/ml”.

As for `CCCCCCCCCCCCOS(=O)(=O)[O-].[Na+]` [Sodium dodecyl sulfate], the “dynamic range of enzyme assay for quantifying HRP compared with absence of surfactant” value in assay [1] (OD4MI CL detection) is given as “wider than that in the absence of surfactant”. With Carbomethyl-β-cyclodextrin sodium salt, the “dynamic range of enzyme assay for quantifying HRP compared with absence of surfactant” value in assay [1] (OD4MI CL detection) is recorded as “wider than that in the absence of surfactant”. Regarding `OC[C@H]1O[C@@H]2O[C@H]3[C@H](O)[C@@H](O)[C@@H](O[C@H]4[C@H](O)[C@@H](O)[C@@H](O[C@H]5[C@H](O)[C@@H](O)[C@@H](O[C@H]6[C@H](O)[C@@H](O)[C@@H](O[C@H]7[C@H](O)[C@@H](O)[C@@H](O[C@H]8[C@H](O)[C@@H](O)[C@@H](O[C@H]1[C@H](O)[C@H]2O)O[C@@H]8CO)O[C@@H]7CO)O[C@@H]6CO)O[C@@H]5CO)O[C@@H]4CO)O[C@@H]3CO` [β-cyclodextrin], in assay [1] (OD4MI CL detection), the “dynamic range of enzyme assay for quantifying HRP compared with absence of surfactant” value is “wider than that in the absence of surfactant”. In the case of `Oc1ccc(-n2cncn2)cc1` [4-(1,2,4-triazol-1-yl) phenol], the “LOD, times lower than in the absence of catalyst” value in assay [3] is recorded as roughly 10 times.

On to `OC[C@H]1O[C@@H]2O[C@H]3[C@H](O)[C@@H](O)[C@@H](O[C@H]4[C@H](O)[C@@H](O)[C@@H](O[C@H]5[C@H](O)[C@@H](O)[C@@H](O[C@H]6[C@H](O)[C@@H](O)[C@@H](O[C@H]7[C@H](O)[C@@H](O)[C@@H](O[C@H]8[C@H](O)[C@@H](O)[C@@H](O[C@H]9[C@H](O)[C@@H](O)[C@@H](O[C@H]1[C@H](O)[C@H]2O)O[C@@H]9CO)O[C@@H]8CO)O[C@@H]7CO)O[C@@H]6CO)O[C@@H]5CO)O[C@@H]4CO)O[C@@H]3CO` [γ-cyclodextrin], for which the “dynamic range of enzyme assay for quantifying HRP compared with absence of surfactant” value in assay [1] (OD4MI CL detection) is given as “wider than that in the absence of surfactant”. Regarding Carboxymethyl-β-cyclodextrin, in assay [1] (OD4MI CL detection), the “dynamic range of enzyme assay for quantifying HRP compared with absence of surfactant” value is recorded as “wider than that in the absence of surfactant”. Consider (2-Hydroxypropyl)-β-cyclodetrin, for which, in assay [1] (OD4MI CL detection), the “dynamic range of enzyme assay for quantifying HRP compared with absence of surfactant” value was “wider than that in the absence of surfactant”. As for `CCCCCCCCCCCCCCCC[N+](C)(C)C.[Br-]` [Hexadecyltrimethylammonium bromide], in assay [1] (OD4MI CL detection), the “dynamic range of enzyme assay for quantifying HRP compared with absence of surfactant” value is recorded as “wider than that in the absence of surfactant”. On to `Oc1ccc(I)cc1` [4-Iodophenol], for which, in assay [3], the “LOD, times lower than in the absence of catalyst” value is given as “about 20 times” and the “LOD, times lower than in the presence of 4-(1,2,4-triazol-1-yl) phenol” value is given as “about 2 times”.

For the origin of these results see patent publication US9017950B2, “Method for enhancing enzyme assays” (Luminescent MD, LLC, priority 2011, dated 2015).
